Assays:
Format in all cases: binding
[1] = target: H-2 K^k (Mus musculus, UniProt P04223)
[2] = target: HLA B*5101 (Homo sapiens, UniProt P01889, A329T/A93T/A95T/C349S/D138N/D201E/D98Y/E187L/E204Q/E69T/G107R/I218V/K202T/L105A/L119W/N104I/Q94N/R106L/R155S/R180L/S101N/S121T/S35A/S48A/V306I/V36M/Y195H/Y91F)
[3] = target: HLA A*6802 (Homo sapiens, UniProt P04439, A269V/D140Y/D185E/E176V/E277Q/E87N/F33Y/G231S/I121R/I166T/I218V/L180W/L300P/L318F/N151K/P208A/P217A/Q86R/R138H/R169H/S129P/T345S/V36M)
[4] = target: HLA B*1503 (Homo sapiens, UniProt P01889, A329T/A93T/A95T/C349S/D201E/D98Y/E187L/E204Q/K202T/N87E/Q94N/R155S/R180L/S121R/S35A/V306I/V36M/Y140S/Y91S); experiment: biochemical
[5] = target: H-2 K^d (Mus musculus, UniProt P01902)
[6] = target: HLA B*1501 (Homo sapiens, UniProt P01889, A329T/A93T/A95T/C349S/D201E/D98Y/E187L/E204Q/E69M/E70A/K202T/N87E/Q94N/R155S/R180W/S121R/S35A/S48A/V306I/V36M/Y140S/Y91S); experiment: biochemical
[7] = target: H-2 D^b (Mus musculus, UniProt P01899)
[8] = target: HLA B*5802 (Homo sapiens, UniProt P01889, A329T/C349S/D201E/D98Y/E176V/E187L/E204Q/E69T/G107R/I218V/I90N/K202T/L105A/N104I/N87E/Q89R/Q94S/R106L/R155S/R180L/R86G/S101N/S121W/S35A/S48A/V127L/V306I/V36M/Y140S/Y91M)
[9] = target: HLA B*5401 (Homo sapiens, UniProt P01889, A329T/C349S/D138N/D201E/E176V/E187T/E204Q/E69G/I76V/K202T/L119W/R155S/R180L/S121T/S35A/S48A/V127L/V306I/V36M/Y140L)
[10] = target: HLA A*3201 (Homo sapiens, UniProt P04439, A270S/D101S/D185E/E176V/E277Q/F133L/G103R/G107R/G231S/H175R/I121M/I218V/I322F/K168Q/L105A/L300P/L318F/M331R/P208A/P217A/Q94H/R106L/R138Q/S129P/T104I/T323A/T345S/V100E/V321M/V358M); experiment: biochemical
[11] = target: H-2 D^d (Mus musculus, UniProt P01900)
[12] = target: HLA A*3001 (Homo sapiens, UniProt P04439, D140H/D185E/E176W/F33S/G80R/H175R/K168Q/R138E/R41S); experiment: biochemical
[13] = target: HLA B*5301 (Homo sapiens, UniProt P01889, A329T/A93T/A95T/C349S/D201E/D98Y/E176V/E187L/E204Q/E69T/G107R/I218V/K202T/L105A/L119I/N104I/Q94N/R106L/R155S/R180L/S101N/S121R/S35A/S48A/T118I/V127L/V306I/V36M/Y140S/Y91F)
[14] = target: HLA B*5801 (Homo sapiens, UniProt P01889, A329T/C349S/D201E/D98Y/E176V/E187L/E204Q/E69T/G107R/I218V/I90N/K202T/L105A/L119I/N104I/N87E/Q89R/Q94S/R106L/R155S/R180L/R86G/S101N/S121R/S35A/S48A/T118I/V127L/V306I/V36M/Y140S/Y91M)
[15] = target: HLA B*0801 (Homo sapiens, UniProt P01889, A93T/A95T/D138N/E176V/E187T/K202T/Q94N/R180D/S35A/V36M/Y33D/Y91F); experiment: biochemical
[16] = target: HLA B*3501 (Homo sapiens, UniProt P01889, A329T/A93T/A95T/C349S/D201E/D98Y/E176V/E187L/E204Q/E69T/I218V/K202T/L119I/Q94N/R155S/R180L/S121R/S35A/S48A/T118I/V127L/V306I/V36M/Y140S/Y91F)

H-2 D^b, sequence (P01887 21-119): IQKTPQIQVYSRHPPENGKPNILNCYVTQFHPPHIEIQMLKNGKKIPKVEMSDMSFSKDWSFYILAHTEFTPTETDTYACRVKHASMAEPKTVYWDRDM
H-2 D^b, sequence (P01899 25-362): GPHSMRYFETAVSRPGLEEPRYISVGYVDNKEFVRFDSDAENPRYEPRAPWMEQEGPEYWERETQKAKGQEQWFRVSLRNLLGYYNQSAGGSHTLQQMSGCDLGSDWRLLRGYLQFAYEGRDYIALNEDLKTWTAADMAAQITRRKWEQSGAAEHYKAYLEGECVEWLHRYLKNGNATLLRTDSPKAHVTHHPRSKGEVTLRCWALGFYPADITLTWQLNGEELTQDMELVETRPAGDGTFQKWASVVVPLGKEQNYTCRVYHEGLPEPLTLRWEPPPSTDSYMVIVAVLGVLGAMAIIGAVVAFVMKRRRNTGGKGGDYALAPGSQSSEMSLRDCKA
H-2 K^k, sequence (P01887 21-119): as the sequence (P01887 21-119) above
H-2 K^k, sequence (P04223 22-369): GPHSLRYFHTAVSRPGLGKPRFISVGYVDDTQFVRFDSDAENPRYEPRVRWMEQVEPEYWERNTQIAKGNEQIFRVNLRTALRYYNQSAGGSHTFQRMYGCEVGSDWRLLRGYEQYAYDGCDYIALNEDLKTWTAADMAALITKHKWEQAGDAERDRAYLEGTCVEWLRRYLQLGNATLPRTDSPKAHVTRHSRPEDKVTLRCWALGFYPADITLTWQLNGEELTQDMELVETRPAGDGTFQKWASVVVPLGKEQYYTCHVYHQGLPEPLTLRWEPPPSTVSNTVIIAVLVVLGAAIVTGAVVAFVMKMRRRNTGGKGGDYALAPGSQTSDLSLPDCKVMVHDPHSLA
H-2 K^d, sequence (P01887 21-119): as the sequence (P01887 21-119) above
H-2 K^d, sequence (P01902 22-368): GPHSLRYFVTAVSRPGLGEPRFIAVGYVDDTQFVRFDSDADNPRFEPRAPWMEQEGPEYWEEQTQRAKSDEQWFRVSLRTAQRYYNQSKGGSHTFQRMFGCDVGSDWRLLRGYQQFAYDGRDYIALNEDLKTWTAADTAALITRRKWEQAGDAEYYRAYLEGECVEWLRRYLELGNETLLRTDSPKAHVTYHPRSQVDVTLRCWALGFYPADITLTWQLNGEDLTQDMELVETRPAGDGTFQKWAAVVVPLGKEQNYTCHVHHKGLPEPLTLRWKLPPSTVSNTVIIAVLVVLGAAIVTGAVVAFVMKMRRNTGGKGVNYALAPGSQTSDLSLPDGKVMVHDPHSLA
H-2 D^d, sequence (P01900 whole entry, looked up): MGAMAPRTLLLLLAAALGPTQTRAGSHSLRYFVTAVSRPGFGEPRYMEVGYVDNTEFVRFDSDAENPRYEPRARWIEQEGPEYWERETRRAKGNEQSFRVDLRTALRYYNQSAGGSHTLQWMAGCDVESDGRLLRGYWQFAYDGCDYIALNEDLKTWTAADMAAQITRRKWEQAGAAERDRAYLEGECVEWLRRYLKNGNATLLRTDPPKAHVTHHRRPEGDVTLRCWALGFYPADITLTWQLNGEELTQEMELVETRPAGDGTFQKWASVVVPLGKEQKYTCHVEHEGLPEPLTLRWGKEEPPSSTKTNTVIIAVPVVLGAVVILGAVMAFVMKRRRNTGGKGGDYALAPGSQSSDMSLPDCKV

Sequence	Normalized average relative binding affinity(ARB) [1]	Normalized average relative binding affinity(ARB) [2]	Normalized average relative binding affinity(ARB) [3]	Normalized average relative binding affinity(ARB) [4]	Normalized average relative binding affinity(ARB) [5]	Normalized average relative binding affinity(ARB) [6]	Normalized average relative binding affinity(ARB) [7]	Normalized average relative binding affinity(ARB) [8]	Normalized average relative binding affinity(ARB) [9]	Normalized average relative binding affinity(ARB) [10]	Normalized average relative binding affinity(ARB) [11]	Normalized average relative binding affinity(ARB) [12]	Normalized average relative binding affinity(ARB) [13]	Normalized average relative binding affinity(ARB) [14]	Normalized average relative binding affinity(ARB) [15]	Normalized average relative binding affinity(ARB) [16]
XXXLXXXXX [3064.0070]	0.96	0.69	0.14	0.46	0.17	0.56	0.96	0.50	0.74	0.098	0.52	0.52	0.17	0.42	0.61	0.10
XXXMXXXXX [3064.0071]	0.42	0.46	0.55	1.0	0.22	0.56	0.65	0.44	0.13	0.58	0.49	0.38	0.46	0.54	1.0	0.27
XXXNXXXXX [3064.0072]	0.22	0.42	0.27	0.76	0.24	0.46	0.18	0.55	0.20	0.59	0.40	0.31	0.27	0.46	0.48	0.079
XXXPXXXXX [3064.0073]	0.41	0.55	0.37	0.67	0.48	0.22	0.15	0.50	0.13	0.095	0.15	0.59	0.023	1.0	0.34	0.11
XXXQXXXXX [3064.0074]	0.63	0.57	0.18	0.83	0.42	0.96	0.61	0.31	0.093	0.32	0.49	0.65	0.26	0.46	0.90	0.088
